Source: patent US20260242419A1, “A CYCLIC PEPTIDE FOR TRAPPING INTERLEUKIN-1 BETA” (Merck Sharp & Dohme LLC, priority 2023, published 2026)
Starred links: 1 amine or outer side, 2 acyl side, 3 side chain; linkers in the order of their positions; H or OH if unused. Non-standard residues stand in square brackets, D forms with d. Residues, ends and D or L forms follow the SMILES beside them. dPro(4R-(4-pyridylmethyl)) = O=C(O)[C@H]1C[C@@H](Cc2ccncc2)CN1; Ala(piperidin-4-yl) = O=C([C@H](CC1CCN([*:3])CC1)N[*:1])[*:2]; Trp(βS-Me,4-F) = C[C@@H](c1c[nH]c2cccc(F)c12)[C@H](N)C(=O)O; Bip(4'-COOH) = N[C@@H](Cc1ccc(-c2ccc(C(=O)O)cc2)cc1)C(=O)O; Ala(1-bicyclo(1.1.1)pentyl) = N[C@@H](CC12CC(C1)C2)C(=O)O; dPro(4R-Bzl(4-F)) = O=C(O)[C@H]1C[C@@H](Cc2ccc(F)cc2)CN1; Ala(morpholin-4-yl) = N[C@@H](CN1CCOCC1)C(=O)O; Ala(piperazin-1-yl) = N[C@@H](CN1CCNCC1)C(=O)O; Phe(4-COOH) = N[C@@H](Cc1ccc(C(=O)O)cc1)C(=O)O; Pro(cis-4-F) = O=C(O)[C@@H]1C[C@H](F)CN1; d(αMeS) = C[C@@](N)(CO)C(=O)O; αMeK = C[C@](N)(CCCCN)C(=O)O; Dab = NCC[C@H](N)C(=O)O; Aib = CC(C)(N)C(=O)O

These molecules were tested against T1, IL-1β (Homo sapiens, UniProt P01584) (assay: IL-6 assay in MRC5 cells: inhibition of IL-1β induced IL-6 secretion (AlphaLISA)). Conditions: inhibition of IL-1β induced IL-6 secretion in MRC5 cells; read-out: MRC5 IC50.
T1 construct: purchased BioLegend 579404
T1 sequence (P01584 117-269): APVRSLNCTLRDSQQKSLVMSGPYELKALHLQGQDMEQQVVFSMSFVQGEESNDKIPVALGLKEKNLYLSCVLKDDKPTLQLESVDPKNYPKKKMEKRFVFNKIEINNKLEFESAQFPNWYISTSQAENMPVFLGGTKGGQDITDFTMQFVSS
Format: cell-based
Procedure, shortened: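 Compound was pre-incubated 1 h at ambient temperature with recombinant human IL-1β at 2λ EC80 before adding human lung fibroblast MRC5 cells (3000/well) in EMEM with 0.025% BSA. After overnight culture at 37 °C, 5% CO2, secreted IL-6 in conditioned medium was measured by AlphaLISA; IC50 from 4-parameter logistic fits.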

SMILES | IC50
C[C@@H](c1c[nH]c2cccc(F)c12)[C@@H]1NC(=O)[C@@H]2C[C@H](F)CN2C(=O)CNC(=O)[C@H](Cc2ccc(C(=O)O)cc2)NC(=O)[C@H](CC23CC(C2)C3)NC(=O)[C@H](Cc2ccc(-c3ccc(C(=O)O)cc3)cc2)NC(=O)[C@H]2C[C@@H](Cc3ccc(F)cc3)CN2C(=O)CNC(=O)[C@H](CCN)NC(=O)[C@H](CCC(N)=O)NC(=O)[C@H](CC2CCNCC2)NC(=O)[C@](C)(CCCCN)NC(=O)[C@H](Cc2c[nH]c3ccccc23)NC(=O)[C@H](CCC(=O)O)NC(=O)C(C)(C)NC1=O [Example 166] (cyclo([Bip(4'-COOH)][Ala(1-bicyclo(1.1.1)pentyl)][Phe(4-COOH)]G[Pro(cis-4-F)][Trp(βS-Me,4-F)][Aib]EW[αMeK][Ala(piperidin-4-yl)]Q[Dab]G[dPro(4R-Bzl(4-F))])) | 0.039 nM
C[C@@H](c1c[nH]c2cccc(F)c12)[C@@H]1NC(=O)[C@@H]2C[C@H](F)CN2C(=O)CNC(=O)[C@H](Cc2ccc(C(=O)O)cc2)NC(=O)[C@H](CC23CC(C2)C3)NC(=O)[C@H](Cc2ccc(-c3ccc(C(=O)O)cc3)cc2)NC(=O)[C@H]2C[C@@H](Cc3ccc(F)cc3)CN2C(=O)CNC(=O)[C@H](CCN)NC(=O)[C@H](CCC(N)=O)NC(=O)[C@H](CN2CCOCC2)NC(=O)C(C)(C)NC(=O)[C@H](Cc2c[nH]c3ccccc23)NC(=O)[C@H](CO)NC(=O)C(C)(C)NC1=O [Example 167] (cyclo([Bip(4'-COOH)][Ala(1-bicyclo(1.1.1)pentyl)][Phe(4-COOH)]G[Pro(cis-4-F)][Trp(βS-Me,4-F)][Aib]SW[Aib][Ala(morpholin-4-yl)]Q[Dab]G[dPro(4R-Bzl(4-F))])) | 0.013 nM
C[C@@H](c1c[nH]c2cccc(F)c12)[C@@H]1NC(=O)[C@@H]2C[C@H](F)CN2C(=O)CNC(=O)[C@H](Cc2ccc(C(=O)O)cc2)NC(=O)[C@H](CC23CC(C2)C3)NC(=O)[C@H](Cc2ccc(-c3ccc(C(=O)O)cc3)cc2)NC(=O)[C@H]2C[C@@H](Cc3ccc(F)cc3)CN2C(=O)CNC(=O)[C@H](CCN)NC(=O)[C@H](CCC(N)=O)NC(=O)[C@H](CN2CCNCC2)NC(=O)C(C)(C)NC(=O)[C@H](Cc2c[nH]c3ccccc23)NC(=O)[C@H](CO)NC(=O)C(C)(C)NC1=O [Example 168] (cyclo([Bip(4'-COOH)][Ala(1-bicyclo(1.1.1)pentyl)][Phe(4-COOH)]G[Pro(cis-4-F)][Trp(βS-Me,4-F)][Aib]SW[Aib][Ala(piperazin-1-yl)]Q[Dab]G[dPro(4R-Bzl(4-F))])) | 0.018 nM
C[C@@H](c1c[nH]c2cccc(F)c12)[C@@H]1NC(=O)[C@@H]2C[C@H](F)CN2C(=O)CNC(=O)[C@H](Cc2ccc(C(=O)O)cc2)NC(=O)[C@H](CC23CC(C2)C3)NC(=O)[C@H](Cc2ccc(-c3ccc(C(=O)O)cc3)cc2)NC(=O)[C@H]2C[C@@H](Cc3ccc(F)cc3)CN2C(=O)CNC(=O)[C@H](CCN)NC(=O)[C@H](CCC(N)=O)NC(=O)[C@H](CC2CCNCC2)NC(=O)C(C)(C)NC(=O)[C@H](Cc2c[nH]c3ccccc23)NC(=O)[C@H](CO)NC(=O)C(C)(C)NC1=O [Example 169] (cyclo([Bip(4'-COOH)][Ala(1-bicyclo(1.1.1)pentyl)][Phe(4-COOH)]G[Pro(cis-4-F)][Trp(βS-Me,4-F)][Aib]SW[Aib][Ala(piperidin-4-yl)]Q[Dab]G[dPro(4R-Bzl(4-F))])) | 0.019 nM
C[C@@H](c1c[nH]c2cccc(F)c12)[C@@H]1NC(=O)[C@@H]2C[C@H](F)CN2C(=O)CNC(=O)[C@H](Cc2ccc(C(=O)O)cc2)NC(=O)[C@H](CC23CC(C2)C3)NC(=O)[C@H](Cc2ccc(-c3ccc(C(=O)O)cc3)cc2)NC(=O)[C@H]2C[C@@H](Cc3ccc(F)cc3)CN2C(=O)CNC(=O)[C@H](CCN)NC(=O)[C@H](CCC(N)=O)NC(=O)[C@H](CN2CCOCC2)NC(=O)[C@@](C)(CO)NC(=O)[C@H](Cc2c[nH]c3ccccc23)NC(=O)[C@H](CO)NC(=O)C(C)(C)NC1=O [Example 170] (cyclo([Bip(4'-COOH)][Ala(1-bicyclo(1.1.1)pentyl)][Phe(4-COOH)]G[Pro(cis-4-F)][Trp(βS-Me,4-F)][Aib]SW[d(αMeS)][Ala(morpholin-4-yl)]Q[Dab]G[dPro(4R-Bzl(4-F))])) | 0.015 nM
C[C@@H](c1c[nH]c2cccc(F)c12)[C@@H]1NC(=O)[C@@H]2C[C@H](F)CN2C(=O)CNC(=O)[C@H](Cc2ccc(C(=O)O)cc2)NC(=O)[C@H](CC23CC(C2)C3)NC(=O)[C@H](Cc2ccc(-c3ccc(C(=O)O)cc3)cc2)NC(=O)[C@H]2C[C@@H](Cc3ccc(F)cc3)CN2C(=O)CNC(=O)[C@H](CCN)NC(=O)[C@H](CCC(N)=O)NC(=O)[C@H](CN2CCNCC2)NC(=O)[C@@](C)(CO)NC(=O)[C@H](Cc2c[nH]c3ccccc23)NC(=O)[C@H](CO)NC(=O)C(C)(C)NC1=O [Example 171] (cyclo([Bip(4'-COOH)][Ala(1-bicyclo(1.1.1)pentyl)][Phe(4-COOH)]G[Pro(cis-4-F)][Trp(βS-Me,4-F)][Aib]SW[d(αMeS)][Ala(piperazin-1-yl)]Q[Dab]G[dPro(4R-Bzl(4-F))])) | 0.016 nM
C[C@@H](c1c[nH]c2cccc(F)c12)[C@@H]1NC(=O)[C@@H]2C[C@H](F)CN2C(=O)CNC(=O)[C@H](Cc2ccc(C(=O)O)cc2)NC(=O)[C@H](CC23CC(C2)C3)NC(=O)[C@H](Cc2ccc(-c3ccc(C(=O)O)cc3)cc2)NC(=O)[C@H]2C[C@@H](Cc3ccc(F)cc3)CN2C(=O)CNC(=O)[C@H](CCN)NC(=O)[C@H](CCC(N)=O)NC(=O)[C@H](CC2CCNCC2)NC(=O)[C@@](C)(CO)NC(=O)[C@H](Cc2c[nH]c3ccccc23)NC(=O)[C@H](CO)NC(=O)C(C)(C)NC1=O [Example 172] (cyclo([Bip(4'-COOH)][Ala(1-bicyclo(1.1.1)pentyl)][Phe(4-COOH)]G[Pro(cis-4-F)][Trp(βS-Me,4-F)][Aib]SW[d(αMeS)][Ala(piperidin-4-yl)]Q[Dab]G[dPro(4R-Bzl(4-F))])) | 0.016 nM

Results, then the molecule that gave them:

IC50 | SMILES
0.037 nM | C[C@@H](c1c[nH]c2cccc(F)c12)[C@@H]1NC(=O)[C@@H]2C[C@H](F)CN2C(=O)CNC(=O)[C@H](Cc2ccc(C(=O)O)cc2)NC(=O)[C@H](CC23CC(C2)C3)NC(=O)[C@H](Cc2ccc(-c3ccc(C(=O)O)cc3)cc2)NC(=O)[C@H]2C[C@@H](Cc3ccc(F)cc3)CN2C(=O)CNC(=O)[C@H](CO)NC(=O)[C@H](CCC(N)=O)NC(=O)[C@H](CN2CCOCC2)NC(=O)[C@](C)(CCCCN)NC(=O)[C@H](Cc2c[nH]c3ccccc23)NC(=O)[C@H](CO)NC(=O)C(C)(C)NC1=O [Example 173] (cyclo([Bip(4'-COOH)][Ala(1-bicyclo(1.1.1)pentyl)][Phe(4-COOH)]G[Pro(cis-4-F)][Trp(βS-Me,4-F)][Aib]SW[αMeK][Ala(morpholin-4-yl)]QSG[dPro(4R-Bzl(4-F))]))
0.025 nM | C[C@@H](c1c[nH]c2cccc(F)c12)[C@@H]1NC(=O)[C@@H]2C[C@H](F)CN2C(=O)CNC(=O)[C@H](Cc2ccc(C(=O)O)cc2)NC(=O)[C@H](CC23CC(C2)C3)NC(=O)[C@H](Cc2ccc(-c3ccc(C(=O)O)cc3)cc2)NC(=O)[C@H]2C[C@@H](Cc3ccc(F)cc3)CN2C(=O)CNC(=O)[C@H](CCN)NC(=O)[C@H](CCC(N)=O)NC(=O)[C@H](CN2CCOCC2)NC(=O)[C@](C)(CCCCN)NC(=O)[C@H](Cc2c[nH]c3ccccc23)NC(=O)[C@H](CO)NC(=O)C(C)(C)NC1=O [Example 174] (cyclo([Bip(4'-COOH)][Ala(1-bicyclo(1.1.1)pentyl)][Phe(4-COOH)]G[Pro(cis-4-F)][Trp(βS-Me,4-F)][Aib]SW[αMeK][Ala(morpholin-4-yl)]Q[Dab]G[dPro(4R-Bzl(4-F))]))
0.037 nM | C[C@@H](c1c[nH]c2cccc(F)c12)[C@@H]1NC(=O)[C@@H]2C[C@H](F)CN2C(=O)CNC(=O)[C@H](Cc2ccc(C(=O)O)cc2)NC(=O)[C@H](CC23CC(C2)C3)NC(=O)[C@H](Cc2ccc(-c3ccc(C(=O)O)cc3)cc2)NC(=O)[C@H]2C[C@@H](Cc3ccc(F)cc3)CN2C(=O)CNC(=O)[C@H](CO)NC(=O)[C@H](CCC(N)=O)NC(=O)[C@H](CN2CCNCC2)NC(=O)[C@](C)(CCCCN)NC(=O)[C@H](Cc2c[nH]c3ccccc23)NC(=O)[C@H](CO)NC(=O)C(C)(C)NC1=O [Example 175] (cyclo([Bip(4'-COOH)][Ala(1-bicyclo(1.1.1)pentyl)][Phe(4-COOH)]G[Pro(cis-4-F)][Trp(βS-Me,4-F)][Aib]SW[αMeK][Ala(piperazin-1-yl)]QSG[dPro(4R-Bzl(4-F))]))
0.036 nM | C[C@@H](c1c[nH]c2cccc(F)c12)[C@@H]1NC(=O)[C@@H]2C[C@H](F)CN2C(=O)CNC(=O)[C@H](Cc2ccc(C(=O)O)cc2)NC(=O)[C@H](CC23CC(C2)C3)NC(=O)[C@H](Cc2ccc(-c3ccc(C(=O)O)cc3)cc2)NC(=O)[C@H]2C[C@@H](Cc3ccncc3)CN2C(=O)CNC(=O)[C@H](CO)NC(=O)[C@H](CCC(N)=O)NC(=O)[C@H](CC2CCNCC2)NC(=O)C(C)(C)NC(=O)[C@H](Cc2c[nH]c3ccccc23)NC(=O)[C@H](CCC(=O)O)NC(=O)C(C)(C)NC1=O [Example 176] (cyclo([Bip(4'-COOH)][Ala(1-bicyclo(1.1.1)pentyl)][Phe(4-COOH)]G[Pro(cis-4-F)][Trp(βS-Me,4-F)][Aib]EW[Aib][Ala(piperidin-4-yl)]QSG[dPro(4R-(4-pyridylmethyl))]))
0.031 nM | C[C@@H](c1c[nH]c2cccc(F)c12)[C@@H]1NC(=O)[C@@H]2C[C@H](F)CN2C(=O)CNC(=O)[C@H](Cc2ccc(C(=O)O)cc2)NC(=O)[C@H](CC23CC(C2)C3)NC(=O)[C@H](Cc2ccc(-c3ccc(C(=O)O)cc3)cc2)NC(=O)[C@H]2C[C@@H](Cc3ccncc3)CN2C(=O)CNC(=O)[C@H](CO)NC(=O)[C@H](CCC(N)=O)NC(=O)[C@H](CN2CCOCC2)NC(=O)[C@@](C)(CO)NC(=O)[C@H](Cc2c[nH]c3ccccc23)NC(=O)[C@H](CCC(=O)O)NC(=O)C(C)(C)NC1=O [Example 177] (cyclo([Bip(4'-COOH)][Ala(1-bicyclo(1.1.1)pentyl)][Phe(4-COOH)]G[Pro(cis-4-F)][Trp(βS-Me,4-F)][Aib]EW[d(αMeS)][Ala(morpholin-4-yl)]QSG[dPro(4R-(4-pyridylmethyl))]))
